We go through 2 compounds from patent US6015790A, “Methods and compositions for treating rheumatoid arthritis” (BASF Aktiengesellschaft, priority 1997, dated 2000).

Assay [1] concerns collagen induced arthritis in DBA-1 mice. The assay is described as follows: Collagen induced arthritis, prophylactic model (mean arthritic score). The format is in vivo. Conditions: 5 mg/kg/day intraperitoneally, day 26 to day 35 post immunization.
Assay [2] has the same test system. The assay is described as follows: Collagen induced arthritis, therapeutic model (mean arthritic score, histopathology). The format is in vivo. To be noted: 5 mg/kg/day intraperitoneally, 21 days from day 48, necropsy day 71, vs vehicle.
Assay [3] relates to National Cancer Institute's P388 lymphocytic leukemia cell line. Conditions: cited from earlier work.

For `C[C@@H]1C[C@H]2[C@@H]3CCC4=CC(=O)C=C[C@]4(C)[C@@]3(F)[C@@H](O)C[C@]2(C)[C@@]1(O)C(=O)CO` [dexamethasone], the “signs of rheumatoid arthritis after end of treatment (mean arthritic score)” value in assay [1] was “exhibited signs of rheumatoid arthritis immediately following the end of treatment”. For the same compound, in assay [2], the “cartilage involvement (cartilage damage, histopathology, scale 0-3)” value was “significantly suppressed” and the “synovitis (synovial inflammation, histopathology, scale 0-3)” value is given as “significantly suppressed”.
For Dolastatin-15, the “inhibition of cell growth” value in assay [3] was “markedly inhibits the growth”.
